According to PubChem BioAssay (NCI):
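Compound exposure: 48 hours, 5 concentrations, 96-well plates. The concentration for full growth arrest is given as TGI.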

Key:
Test in all cases: NCI-60 cell line screen, 48 h
786-0 renal = test system: 786-0 renal
A498 renal = test system: A498 renal
ACHN renal = test system: ACHN renal
BT-549 breast = test system: BT-549 breast
CAKI-1 renal = test system: CAKI-1 renal
CCRF-CEM leukemia = test system: CCRF-CEM leukemia
COLO 205 colon = test system: COLO 205 colon
DU-145 prostate = test system: DU-145 prostate
EKVX NSCLC = test system: EKVX NSCLC
HCC-2998 colon = test system: HCC-2998 colon
HCT-116 colon = test system: HCT-116 colon
HCT-15 colon = test system: HCT-15 colon
HL-60(TB) leukemia = test system: HL-60(TB) leukemia
HOP-62 NSCLC = test system: HOP-62 NSCLC
HOP-92 NSCLC = test system: HOP-92 NSCLC
HS 578T breast = test system: HS 578T breast
IGROV1 ovarian = test system: IGROV1 ovarian
K-562 leukemia = test system: K-562 leukemia
KM12 colon = test system: KM12 colon
LOX IMVI melanoma = test system: LOX IMVI melanoma
M14 melanoma = test system: M14 melanoma
MCF7 breast = test system: MCF7 breast
MDA-MB-231 breast = test system: MDA-MB-231 breast
MDA-MB-435 = test system: MDA-MB-435
MDA-N = test system: MDA-N
MOLT-4 leukemia = test system: MOLT-4 leukemia
NCI-H226 lung = test system: NCI-H226 lung
NCI-H23 lung = test system: NCI-H23 lung
NCI-H460 lung = test system: NCI-H460 lung
NCI-H522 lung = test system: NCI-H522 lung
NCI/ADR-RES ovarian = test system: NCI/ADR-RES ovarian
OVCAR-3 ovarian = test system: OVCAR-3 ovarian
OVCAR-4 ovarian = test system: OVCAR-4 ovarian
OVCAR-5 ovarian = test system: OVCAR-5 ovarian
OVCAR-8 ovarian = test system: OVCAR-8 ovarian
PC-3 prostate = test system: PC-3 prostate
RXF 393 renal = test system: RXF 393 renal
SF-268 CNS = test system: SF-268 CNS
SF-295 CNS = test system: SF-295 CNS
SF-539 CNS = test system: SF-539 CNS
SK-MEL-2 melanoma = test system: SK-MEL-2 melanoma
SK-MEL-5 melanoma = test system: SK-MEL-5 melanoma
SK-OV-3 ovarian = test system: SK-OV-3 ovarian
SN12C renal = test system: SN12C renal
SNB-19 CNS = test system: SNB-19 CNS
SNB-75 CNS = test system: SNB-75 CNS
SR leukemia = test system: SR leukemia
SW-620 colon = test system: SW-620 colon
T-47D breast = test system: T-47D breast
TK-10 renal = test system: TK-10 renal
U251 CNS = test system: U251 CNS
UACC-257 melanoma = test system: UACC-257 melanoma
UACC-62 melanoma = test system: UACC-62 melanoma
UO-31 renal = test system: UO-31 renal
A549 NSCLC = test system: A549 NSCLC
HT29 colon = test system: HT29 colon
MALME-3M melanoma = test system: MALME-3M melanoma
RPMI-8226 leukemia = test system: RPMI-8226 leukemia
SK-MEL-28 melanoma = test system: SK-MEL-28 melanoma

CC(=O)c1ccc(N=NN2CCCC2)cc1
TGI (786-0 renal): > 100 µM
TGI (A498 renal): 37.3 µM
TGI (ACHN renal): > 100 µM
TGI (BT-549 breast): > 100 µM
TGI (CAKI-1 renal): > 100 µM
TGI (CCRF-CEM leukemia): > 100 µM
TGI (COLO 205 colon): > 100 µM
TGI (DU-145 prostate): > 100 µM
TGI (EKVX NSCLC): > 100 µM
TGI (HCC-2998 colon): > 100 µM
TGI (HCT-116 colon): > 100 µM
TGI (HCT-15 colon): > 100 µM
TGI (HL-60(TB) leukemia): > 100 µM
TGI (HOP-62 NSCLC): > 100 µM
TGI (HOP-92 NSCLC): > 100 µM
TGI (HS 578T breast): > 100 µM
TGI (IGROV1 ovarian): > 100 µM
TGI (K-562 leukemia): > 100 µM
TGI (KM12 colon): > 100 µM
TGI (LOX IMVI melanoma): > 100 µM
TGI (M14 melanoma): > 100 µM
TGI (MCF7 breast): > 100 µM
TGI (MDA-MB-231 breast): > 100 µM
TGI (MDA-MB-435): > 100 µM
TGI (MDA-N): > 100 µM
TGI (MOLT-4 leukemia): > 100 µM
TGI (NCI-H226 lung): > 100 µM
TGI (NCI-H23 lung): > 100 µM
TGI (NCI-H460 lung): > 100 µM
TGI (NCI-H522 lung): > 100 µM
TGI (NCI/ADR-RES ovarian): > 100 µM
TGI (OVCAR-3 ovarian): > 100 µM
TGI (OVCAR-4 ovarian): > 100 µM
TGI (OVCAR-5 ovarian): > 100 µM
TGI (OVCAR-8 ovarian): > 100 µM
TGI (PC-3 prostate): > 100 µM
TGI (RXF 393 renal): > 100 µM
TGI (SF-268 CNS): > 100 µM
TGI (SF-295 CNS): > 100 µM
TGI (SF-539 CNS): > 100 µM
TGI (SK-MEL-2 melanoma): > 100 µM
TGI (SK-MEL-5 melanoma): > 100 µM
TGI (SK-OV-3 ovarian): > 100 µM
TGI (SN12C renal): > 100 µM
TGI (SNB-19 CNS): > 100 µM
TGI (SNB-75 CNS): > 100 µM
TGI (SR leukemia): > 100 µM
TGI (SW-620 colon): > 100 µM
TGI (T-47D breast): > 100 µM
TGI (TK-10 renal): > 100 µM
TGI (U251 CNS): > 100 µM
TGI (UACC-257 melanoma): > 100 µM
TGI (UACC-62 melanoma): > 100 µM
TGI (UO-31 renal): > 100 µM

CN=c1sc2c(n1C)C(=O)c1ccccc1C2=O
TGI (786-0 renal): 20.7 µM
TGI (A498 renal): 30.1 µM
TGI (A549 NSCLC): 3.94 µM
TGI (ACHN renal): 19.2 µM
TGI (BT-549 breast): 3.58 µM
TGI (CAKI-1 renal): 15.5 µM
TGI (CCRF-CEM leukemia): 44.4 µM
TGI (COLO 205 colon): 11.9 µM
TGI (DU-145 prostate): 3.12 µM
TGI (EKVX NSCLC): 24.3 µM
TGI (HCC-2998 colon): 20.4 µM
TGI (HCT-116 colon): 9.1 µM
TGI (HCT-15 colon): 4.82 µM
TGI (HOP-62 NSCLC): 3.39 µM
TGI (HOP-92 NSCLC): 29.9 µM
TGI (HS 578T breast): 6.16 µM
TGI (HT29 colon): 10.4 µM
TGI (IGROV1 ovarian): > 41.6 µM
TGI (K-562 leukemia): 12.2 µM
TGI (KM12 colon): 13.5 µM
TGI (LOX IMVI melanoma): 10.4 µM
TGI (M14 melanoma): 3.01 µM
TGI (MALME-3M melanoma): 1.14 µM
TGI (MCF7 breast): 3.8 µM
TGI (MDA-MB-231 breast): 33.7 µM
TGI (MDA-MB-435): 0.374 µM
TGI (MDA-N): 0.467 µM
TGI (MOLT-4 leukemia): 26.5 µM
TGI (NCI-H226 lung): 5.65 µM
TGI (NCI-H23 lung): 2.38 µM
TGI (NCI-H460 lung): 8.01 µM
TGI (NCI-H522 lung): 29.4 µM
TGI (NCI/ADR-RES ovarian): 16.4 µM
TGI (OVCAR-3 ovarian): 11.3 µM
TGI (OVCAR-4 ovarian): 11 µM
TGI (OVCAR-5 ovarian): 9.26 µM
TGI (OVCAR-8 ovarian): 15.3 µM
TGI (PC-3 prostate): > 55.1 µM
TGI (RPMI-8226 leukemia): 24.6 µM
TGI (RXF 393 renal): 9.01 µM
TGI (SF-268 CNS): 14.5 µM
TGI (SF-295 CNS): 3.77 µM
TGI (SF-539 CNS): 4.2 µM
TGI (SK-MEL-2 melanoma): 6.14 µM
TGI (SK-MEL-28 melanoma): 3.61 µM
TGI (SK-MEL-5 melanoma): 6.85 µM
TGI (SK-OV-3 ovarian): 77.9 µM
TGI (SN12C renal): 3.05 µM
TGI (SNB-19 CNS): 10.1 µM
TGI (SNB-75 CNS): 4.33 µM
TGI (SR leukemia): 8.97 µM
TGI (SW-620 colon): 4.81 µM
TGI (T-47D breast): 17.5 µM
TGI (TK-10 renal): 35.6 µM
TGI (U251 CNS): 10.5 µM
TGI (UACC-257 melanoma): 4.59 µM
TGI (UO-31 renal): 19.6 µM

CCOC(=O)/C(=C\c1cccc(C)c1)C(C)=O
TGI (786-0 renal): 26.4 µM
TGI (A498 renal): 52 µM
TGI (A549 NSCLC): > 100 µM
TGI (ACHN renal): 66 µM
TGI (BT-549 breast): 22.7 µM
TGI (CAKI-1 renal): 98.8 µM
TGI (COLO 205 colon): 41 µM
TGI (DU-145 prostate): 38.7 µM
TGI (EKVX NSCLC): > 100 µM
TGI (HCC-2998 colon): 28.4 µM
TGI (HCT-116 colon): 30.4 µM
TGI (HCT-15 colon): 38.9 µM
TGI (HL-60(TB) leukemia): 32.2 µM
TGI (HOP-62 NSCLC): 96.1 µM
TGI (HOP-92 NSCLC): 34.8 µM
TGI (HS 578T breast): 51.3 µM
TGI (HT29 colon): > 100 µM
TGI (IGROV1 ovarian): 40.8 µM
TGI (K-562 leukemia): > 100 µM
TGI (KM12 colon): 32.9 µM
TGI (LOX IMVI melanoma): 26.5 µM
TGI (M14 melanoma): 44.3 µM
TGI (MALME-3M melanoma): 31.4 µM
TGI (MCF7 breast): 35.4 µM
TGI (MDA-MB-231 breast): 28.9 µM
TGI (MDA-MB-435): 45.4 µM
TGI (MDA-N): 31.4 µM
TGI (MOLT-4 leukemia): 66.6 µM
TGI (NCI-H226 lung): > 100 µM
TGI (NCI-H23 lung): 39 µM
TGI (NCI-H460 lung): 51.6 µM
TGI (NCI-H522 lung): 22.8 µM
TGI (NCI/ADR-RES ovarian): 79.5 µM
TGI (OVCAR-3 ovarian): 28.1 µM
TGI (OVCAR-4 ovarian): 59.6 µM
TGI (OVCAR-5 ovarian): 31 µM
TGI (OVCAR-8 ovarian): 75.1 µM
TGI (PC-3 prostate): 28.3 µM
TGI (RPMI-8226 leukemia): 32.2 µM
TGI (RXF 393 renal): 24.9 µM
TGI (SF-268 CNS): 45.4 µM
TGI (SF-295 CNS): 55.8 µM
TGI (SF-539 CNS): 40.3 µM
TGI (SK-MEL-2 melanoma): 26.1 µM
TGI (SK-MEL-28 melanoma): 30.5 µM
TGI (SK-MEL-5 melanoma): 32 µM
TGI (SK-OV-3 ovarian): > 100 µM
TGI (SN12C renal): 41.7 µM
TGI (SNB-19 CNS): 36.7 µM
TGI (SNB-75 CNS): 25.2 µM
TGI (SR leukemia): 84.5 µM
TGI (SW-620 colon): 27 µM
TGI (T-47D breast): 46.7 µM
TGI (TK-10 renal): 44.3 µM
TGI (U251 CNS): 26.2 µM
TGI (UACC-257 melanoma): 35.1 µM
TGI (UACC-62 melanoma): 31.7 µM
TGI (UO-31 renal): 33.7 µM
